The values below come from patent US9822147B2, “Methods of treating ophthalmic diseases using NPR-B agonists” (priority 2009, dated 2017).

Numbered stars: 1 amine (or outer) side, 2 acyl side, 3 side chain; on linkers, the order of the positions; unused ones are H or OH. Square brackets hold non-standard residues; d marks the D form. Peptide text beside a SMILES is read from it. * marks the point of attachment. X3 = NCCN[C@@H]1C[C@@H](C(=O)[*:2])N([*:1])C1; X7 = N[C@@H]1CCN([*:1])[C@@H]1C(=O)[*:2]; Pro(4R-NH2) = N[C@H]1CN[C@H](C(=O)O)C1; X2 = O=C([C@H]1CCCN([*:1])C1)[*:2]; Hyp = O=C(O)[C@@H]1C[C@@H](O)CN1; NHcycloheptyl = C1CCCC(N*)CC1; NMeL = CN[C@@H](CC(C)C)C(=O)O; Octanoyl = CCCCCCCC(=O)*

The experiment deals with T1, NPR-B (Homo sapiens, UniProt P20594).
T1 construct: a functional assay using endogenously NPR-B expressing GTM-3 cells; endogenous in cells; host or cells: GTM-3 (human glaucoma trabecular meshwork cells)
T1 sequence (P20594 23-1047): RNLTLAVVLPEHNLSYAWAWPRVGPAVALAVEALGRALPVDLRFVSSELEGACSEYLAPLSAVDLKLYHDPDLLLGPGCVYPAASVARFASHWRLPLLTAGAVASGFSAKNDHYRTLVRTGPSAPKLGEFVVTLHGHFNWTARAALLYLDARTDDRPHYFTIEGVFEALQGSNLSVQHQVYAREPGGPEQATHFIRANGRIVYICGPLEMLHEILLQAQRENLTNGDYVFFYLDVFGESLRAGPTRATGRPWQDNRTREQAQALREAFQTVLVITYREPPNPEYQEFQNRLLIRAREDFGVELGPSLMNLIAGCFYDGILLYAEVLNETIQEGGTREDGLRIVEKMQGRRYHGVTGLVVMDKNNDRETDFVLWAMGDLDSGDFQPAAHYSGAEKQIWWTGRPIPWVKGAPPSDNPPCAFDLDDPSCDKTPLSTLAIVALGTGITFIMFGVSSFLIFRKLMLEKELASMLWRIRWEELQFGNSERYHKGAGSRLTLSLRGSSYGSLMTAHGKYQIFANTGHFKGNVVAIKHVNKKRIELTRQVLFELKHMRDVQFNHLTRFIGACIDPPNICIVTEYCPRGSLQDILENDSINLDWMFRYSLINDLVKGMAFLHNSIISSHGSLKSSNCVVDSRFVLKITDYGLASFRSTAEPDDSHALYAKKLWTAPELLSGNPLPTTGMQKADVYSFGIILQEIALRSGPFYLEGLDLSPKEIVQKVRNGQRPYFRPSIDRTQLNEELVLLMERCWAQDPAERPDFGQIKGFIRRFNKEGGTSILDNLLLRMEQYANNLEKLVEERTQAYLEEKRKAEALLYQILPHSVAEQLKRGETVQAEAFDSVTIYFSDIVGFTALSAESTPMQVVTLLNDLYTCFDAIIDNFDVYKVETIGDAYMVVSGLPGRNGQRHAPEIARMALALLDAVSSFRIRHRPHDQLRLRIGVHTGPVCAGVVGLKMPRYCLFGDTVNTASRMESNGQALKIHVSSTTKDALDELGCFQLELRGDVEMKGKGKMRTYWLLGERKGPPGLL
The experiment in a line: NPR-B induced production of cyclic GMP in human glaucoma trabecular meshwork cells (GTM-3). It is filed as cell-based. To be noted: group by EC50 and Emax (CNP = 100%); Table 4; read-out: Activity (group), NPR-B activation assayed with GTM-3 cells.

Take `CCCCCCCC(=O)N[C@H]1CCN([C@@H](Cc2ccccc2)C(=O)N[C@H](CC(C)C)C(=O)N[C@@H](CC(C)C)C(=O)N2C[C@H](O)C[C@H]2C(=O)N(C)[C@@H](CC(C)C)C(=O)N[C@@H](CC(=O)O)C(=O)N[C@@H](CCCNC(=N)N)C(=O)N[C@H](C(N)=O)[C@@H](C)CC)C1=O` [JAL-1671, Occ-(AFL)-leu-Leu-Hyp-Nml-Asp-Arg-Ile-NH2]: the EC50 is below 1000 nM.

For `CCCCCCCC(=O)N1CCC[C@H](C(=O)N[C@@H](Cc2ccccc2)C(=O)N[C@H](CC(C)C)C(=O)N[C@@H](CC(C)C)C(=O)N2C[C@H](O)C[C@H]2C(=O)N(C)[C@@H](CC(C)C)C(=O)N[C@@H](CC(=O)O)C(=O)N2CC[C@@H](N)[C@H]2C(=O)NC2CCCCCC2)C1` [JAL-1679, Occ-Sni-Phe-leu-Leu-Hyp-Nml-Asp-Pca-Che] (Octanoyl-[X2]F[dL]L[Hyp][NMeL]D[X7]-NHcycloheptyl), the EC50 is below 1000 nM. The value for `CCCCCCCC(=O)N1CCC[C@H](C(=O)N[C@@H](Cc2ccccc2)C(=O)N[C@H](CC(C)C)C(=O)N[C@@H](CC(C)C)C(=O)N2C[C@H](O)C[C@H]2C(=O)N(C)[C@@H](CC(C)C)C(=O)N[C@@H](CC(=O)O)C(=O)N[C@@H](CCCNC(=N)N)C(=O)NC2CCCCCC2)C1` [JAL-1680, Occ-Sni-Phe-leu-Leu-Hyp-Nml-Asp-Arg-Che] (Octanoyl-[X2]F[dL]L[Hyp][NMeL]DR-NHcycloheptyl) was below 1000 nM; that for `CCCCCCCC(=O)N1CCC[C@H](C(=O)N[C@@H](Cc2ccccc2)C(=O)N[C@H](CC(C)C)C(=O)N[C@@H](CC(C)C)C(=O)N2C[C@H](NCCN)C[C@H]2C(=O)N(C)[C@@H](CC(C)C)C(=O)N[C@@H](CC(=O)O)C(=O)N[C@@H](CCCNC(=N)N)C(=O)NC2CCCCCC2)C1` [JAL-1681, Occ-Sni-Phe-leu-Leu-Tap(Ae)-Nml-Asp-Arg-Che] (Octanoyl-[X2]F[dL]L[X3][NMeL]DR-NHcycloheptyl) was below 1000 nM. In the case of `CCCCCCCC(=O)N1CCC[C@H](C(=O)N[C@@H](Cc2ccccc2)C(=O)N[C@H](CC(C)C)C(=O)N[C@@H](CC(C)C)C(=O)N2C[C@H](N)C[C@H]2C(=O)N(C)[C@@H](CC(C)C)C(=O)N[C@@H](CC(=O)O)C(=O)N[C@@H](CCCNC(=N)N)C(=O)NC2CCCCCC2)C1` [JAL-1682, Occ-Sni-Phe-leu-Leu-Tap-Nml-Asp-Arg-Che] (Octanoyl-[X2]F[dL]L[Pro(4R-NH2)][NMeL]DR-NHcycloheptyl), the EC50 was below 1000 nM. Turning to `CCCCCCCC(=O)N1CCC[C@H](C(=O)N[C@@H](Cc2ccccc2)C(=O)N[C@H](CC(C)C)C(=O)N[C@@H](CC(C)C)C(=O)N2C[C@H](O)C[C@H]2C(=O)N(C)[C@@H](CC(C)C)C(=O)N[C@@H](CO)C(=O)N[C@@H](CCCNC(=N)N)C(=O)NC2CCCCCC2)C1` [JAL-1752, Occ-Sni-Phe-leu-Leu-Hyp-Nml-Ser-Arg-Che] (Octanoyl-[X2]F[dL]L[Hyp][NMeL]SR-NHcycloheptyl), the EC50 was below 1000 nM. Take `CCCCCCCC(=O)N1CCC[C@H](C(=O)N[C@@H](Cc2ccccc2)C(=O)N[C@H](CC(C)C)C(=O)N[C@@H](CC(C)C)C(=O)N2C[C@H](O)C[C@H]2C(=O)N(C)[C@@H](CC(C)C)C(=O)N[C@H](C(=O)N[C@@H](CCCNC(=N)N)C(=O)NC2CCCCCC2)[C@@H](C)O)C1` [JAL-1753, Occ-Sni-Phe-leu-Leu-Hyp-Nml-Thr-Arg-Che] (Octanoyl-[X2]F[dL]L[Hyp][NMeL]TR-NHcycloheptyl): the EC50 is below 1000 nM. On to `CCCCCCCC(=O)N1CCCC2(CCN(C(Cc3ccccc3)C(=O)N[C@H](CC(C)C)C(=O)N[C@@H](CC(C)C)C(=O)N3C[C@H](O)C[C@H]3C(=O)N(C)[C@@H](CC(C)C)C(=O)N[C@@H](CC(=O)O)C(=O)N[C@@H](CCCNC(=N)N)C(=O)N[C@H](C(N)=O)[C@@H](C)CC)C2=O)C1` (stereo partly drawn) [JAL-1765-2, (AR-314-87)-leu-Leu-Hyp-Nml-Asp-Arg-Ile-NH2] (HELM PEPTIDE1{[CCCCCCCC(=O)[*:2]].[O=C1N(C(Cc2ccccc2)C(=O)[*:2])CCC12CCCN([*:1])C2].[dL].L.[Hyp].[meL].D.R.I.[am]}$$$$V2.0), for which the EC50 was below 1000 nM.
